# Assay results reported in US11478533B2, “Semaglutide for use in medicine” (Novo Nordisk A/S, priority 2020, dated 2022).
# Tested on: subjects with NASH
# Experiment: Clinical Trial A: enhanced liver fibrosis (ELF) score
# Format: in vivo, human
# Settings: week 72; for Change in enhanced liver fibrosis (ELF) at end of trial compared to baseline relative to placebo, ETD: all randomised subjects, estimated treatment difference vs placebo (ANCOVA)
# Excerpt: In some embodiments the method of the invention reduces enhanced liver fibrosis (ELF). In some embodiments the term “enhanced liver fibrosis” (also referred to as ELF) as used herein refers to a score derived as a log-linear combination based on blood sample levels of hyaluronic acid (HA), amino-terminal propeptide of type III collagen (P3NP), and tissue inhibitor of metalloproteinase 1 (TIMP1) according to Formula (I): ELF=−7.412+0.681×ln(cHA)+0.775×ln(cP3NP)+0.494×ln(cTIMP1) (I) where cHA is the serum concentration of HA in ng/ml, cP3NP is the serum concentration of P3NP in ng/ml, and cTIMP1 is the serum concentration of TIMP1 in ng/ml.
# A 72-week, randomised, double-blind, placebo-controlled, six-armed, parallel group, multicentre, multi-national phase 2 trial comparing once daily (OD) administration of semaglutide in three different doses (0.1 mg, 0.2 mg and 0.4 mg) with placebo in subjects with NASH was carried out. A total of 319 subjects received trial product, 302 subjects completed the trial, and 277 subjects had liver biopsy at trial week 72. Subjects received once daily (a) semaglutide of (i) 0.05 mg for 4 weeks and 0.1 mg for the remaining trial period, (ii) 0.05 mg for 4 weeks, 0.1 mg for 4 weeks, and 0.2 mg for the remaining trial period, (iii) 0.05 mg for 4 weeks, 0.1 mg for 4 weeks, 0.2 mg for 4 weeks, 0.3 mg for 4 weeks, and 0.4 mg for the remaining trial period, or (b) placebo in injection volumes corresponding to (i), (ii) or (iii). Administration was performed via subcutaneous injection using (a) an aqueous solution comprising 1.0 mg/ml semaglutide, 1.42 mg/ml disodium hydrogen phosphate dihydrate, 14.0 mg/ml propylene glycol, 5.50 mg/ml phenol at pH 7.4, or (b) a placebo solution comprising the same ingredients as (a) except no semaglutide. Inclusion criteria for subjects in the trial comprised (i) histologic evidence of NASH based on evaluation of a liver biopsy obtained up to 21 weeks before screening, (ii) a histological NAS >4 with a score of 1 or more in each sub-component of the score, and (iii) liver fibrosis stage 1, 2 or 3 according to the NASH-CRN. Screening was carried out prior to baseline in order to make assessments used to determine subject eligibility. Exclusion criteria for subjects in the trial comprised (i) documented causes of chronic liver disease other than NASH and (ii) no substantial alcohol consumption, defined in the trial as no more than 20 g ethanol per day for women or no more than 30 g ethanol per day for men. Baseline characteristics for all randomised subjects in the trial were as shown in Table A. The term “baseline” as used herein refers to the beginning of the trial prior to administration of semaglutide or placebo. […] The fibrosis stage was determined according to the Kleiner fibrosis classification.
substance,measurement,setting,value
"N-epsilon26-[2-(2-{2-[2-(2-{2-[(S)-4-Carboxy-4-(17-carboxyheptadecanoyl-amino)butyrylamino]ethoxy}ethoxy)acetylamino]ethoxy}ethoxy)acetyl] [Aib8, Arg34]GLP-1-(7-37) [Semaglutide]","Change in enhanced liver fibrosis (ELF) at end of trial compared to baseline relative to placebo, ETD",0.1 mg OD s.c.,−0.35 [−0.57;
same,"Change in enhanced liver fibrosis (ELF) at end of trial compared to baseline relative to placebo, ETD",0.2 mg OD s.c.,−0.40 [−0.62;
same,"Change in enhanced liver fibrosis (ELF) at end of trial compared to baseline relative to placebo, ETD",0.4 mg OD s.c.,−0.57 [−0.79;
same,Reduction of ELF compared to placebo (in words),all tested semaglutide dosages,reduced ELF significantly more compared to placebo
